Patent US11708562B2, “Differentiation of human embryonic stem cells” (Janssen Biotech, Inc., priority 2006, dated 2023)

Tested on: H9P83 cells on MATRIGEL and H9P44 cells on MEFs
Assay: Microarray analysis of gene expression after definitive endoderm formation (Table IV)
Assay type: cell-based, human
Conditions: after 5 days of treatment
Description: Controls for each group included cells plated on […]-coated dishes and cultured in MEF-conditioned medium or cells plated on MEFs and cultured in ES medium.
Sample preparation, hybridization, and image analysis were performed according to the Affymetrix Human Genome U133 Plus 2.0 Array. Following normalization and a log transformation, data analysis was performed using OmniViz® software (MA) and […] (VizXLabs, WA). The variability within each treatment and among the different treatments was compared using the Pearson correlation coefficient. […] Significant differences in gene expression between the samples were evaluated using analysis of variance and an F-test with adjusted P-value (Benjamini and Hochberg correction) of ≤0.05. Only genes with a present call were included in the analysis.

[1] = H9P44 on MEFs-DE stage, undifferentiated H9P44 on MEFs 2.17
[2] = H9P44 on MEFs-DE stage, undifferentiated H9P44 on MEFs 2.18
[3] = H9P44 on MEFs-DE stage, undifferentiated H9P44 on MEFs 3.80
[4] = H9P83 on Matrigel-DE stage, undifferentiated H9P83 on Matrigel 1.38

Activin A: a member of the TGFβ superfamily; growth factor (R&D Systems) used to differentiate human embryonic stem cells
expression of HCN1 (BM682352, cDNA FLJ37204 fis, clone BRALZ2006976) (H9P44 on MEFs-DE stage): −3.88 | expression of INDO (M34455, indoleamine 2,3-dioxygenase (IDO)) (H9P44 on MEFs-DE stage): 1.69 | expression of JAKMIP2 (BU729850, hypothetical protein LOC153469) (H9P44 on MEFs-DE stage): −1.56 | expression of LOC157627 (AL832535, cDNA DKFZp547J1816) (H9P44 on MEFs-DE stage): −1.50 | expression of PCSK1 (NM_000439, proprotein convertase subtilisinkexin type 1) (H9P44 on MEFs-DE stage): −3.19 | expression of SMOC2 (AB014737, mRNA for SMAP-2b) (H9P44 on MEFs-DE stage): −2.27 | SCNN1G (AI985987) gene expression (H9P44 on MEFs-DE stage, undifferentiated H9P44 on MEFs 0.12): −2.70 | TMEM16A (NM_018043) gene expression (H9P44 on MEFs-DE stage, undifferentiated H9P44 on MEFs 0.25): −3.93 | LOC646326 (BE972639) gene expression (H9P44 on MEFs-DE stage, undifferentiated H9P44 on MEFs 0.33): −2.24 | COL14A1 (AI693516) gene expression (H9P44 on MEFs-DE stage, undifferentiated H9P44 on MEFs 0.96): −1.81 | AK5 (BG169832) gene expression (H9P44 on MEFs-DE stage, undifferentiated H9P44 on MEFs 1.03): −1.94 | C9orf39 (AA280904) gene expression (H9P44 on MEFs-DE stage, undifferentiated H9P44 on MEFs 1.13): −0.78 | LOC200230 (AI056877) gene expression (H9P44 on MEFs-DE stage, undifferentiated H9P44 on MEFs 1.15): −1.35 | CTNND2 (U96136) gene expression (H9P44 on MEFs-DE stage, undifferentiated H9P44 on MEFs 1.18): −1.17 | SDK2 (N23651) gene expression (H9P44 on MEFs-DE stage, undifferentiated H9P44 on MEFs 1.27): −2.07 | SAMHD1 (AF147427) gene expression (H9P44 on MEFs-DE stage, undifferentiated H9P44 on MEFs 1.35): −2.30 | PAH (NM_000277) gene expression (H9P44 on MEFs-DE stage, undifferentiated H9P44 on MEFs 1.46): −0.42 | AL120674 (ESTs) gene expression (H9P44 on MEFs-DE stage, undifferentiated H9P44 on MEFs 1.55): −2.20 | AI742043 (ESTs) gene expression (H9P44 on MEFs-DE stage, undifferentiated H9P44 on MEFs 1.77): −1.45 | DAZL (NM_001351) gene expression (H9P44 on MEFs-DE stage, undifferentiated H9P44 on MEFs 1.93): −0.73 | PSMB9 (NM_002800) gene expression (H9P44 on MEFs-DE stage, undifferentiated H9P44 on MEFs 2.05): −1.43 | BF698797 (ESTs) gene expression (H9P44 on MEFs-DE stage, undifferentiated H9P44 on MEFs 2.07): −0.40 | AF107846 (neuroendocrine-specific Golgi protein p55 (XLalphas) gene) expression (H9P44 on MEFs-DE stage, undifferentiated H9P44 on MEFs 2.12): −2.56 | CHST8 (NM_022467) gene expression [1]: 0.48 | NPTX1 (NM_002522) gene expression [1]: −1.19 | FGF19 (AF110400) gene expression [2]: −0.91 | PCDH8 (NM_002590) gene expression [2]: 0.12 | LOC157627 (AF052108) gene expression (H9P44 on MEFs-DE stage, undifferentiated H9P44 on MEFs 2.26): −1.33 | C10orf96 (BC044830) gene expression (H9P44 on MEFs-DE stage, undifferentiated H9P44 on MEFs 2.28): −1.39 | CR2 (NM_001877) gene expression (H9P44 on MEFs-DE stage, undifferentiated H9P44 on MEFs 2.35): −1.44 | SAMHD1 (NM_015474) gene expression (H9P44 on MEFs-DE stage, undifferentiated H9P44 on MEFs 2.89): 0.29 | PSMB8 (U17496) gene expression (H9P44 on MEFs-DE stage, undifferentiated H9P44 on MEFs 3.30): 0.09 | HHIP (AK098525) gene expression (H9P44 on MEFs-DE stage, undifferentiated H9P44 on MEFs 3.32): −0.11 | KCNG3 (NM_133329) gene expression (H9P44 on MEFs-DE stage, undifferentiated H9P44 on MEFs 3.67): 0.26 | STXBP6 (N21096) gene expression (H9P44 on MEFs-DE stage, undifferentiated H9P44 on MEFs 3.69): 1.14 | NMI (NM_004688) gene expression [3]: 1.13 | RMST (BE468066) gene expression [3]: 1.63 | TOX (AI961231) gene expression (H9P44 on MEFs-DE stage, undifferentiated H9P44 on MEFs 4.00): 1.13 | C20orf118 (BF437747) gene expression (H9P44 on MEFs-DE stage, undifferentiated H9P44 on MEFs 4.57): 1.75 | C20orf118 (AV715309) gene expression (H9P44 on MEFs-DE stage, undifferentiated H9P44 on MEFs 4.76): 1.48 | FEZ1 (NM_005103) gene expression (H9P44 on MEFs-DE stage, undifferentiated H9P44 on MEFs 4.98): 2.20 | SCG5 (NM_003020) gene expression (H9P44 on MEFs-DE stage, undifferentiated H9P44 on MEFs 5.01): 3.11 | LECT1 (NM_007015) gene expression (H9P44 on MEFs-DE stage, undifferentiated H9P44 on MEFs 5.36): 1.83 | IFIH1 (NM_022168) gene expression (H9P44 on MEFs-DE stage, undifferentiated H9P44 on MEFs −0.10): −2.15 | ATP5S (BE968806) gene expression (H9P44 on MEFs-DE stage, undifferentiated H9P44 on MEFs −0.34): −4.73 | PAK7 (AB040812) gene expression (H9P44 on MEFs-DE stage, undifferentiated H9P44 on MEFs −0.49): −4.18 | expression of HCN1 (BM682352, cDNA FLJ37204 fis, clone BRALZ2006976) (H9P83 on Matrigel-DE stage): −4.38 | expression of INDO (M34455, indoleamine 2,3-dioxygenase (IDO)) (H9P83 on Matrigel-DE stage): 1.58 | expression of JAKMIP2 (BU729850, hypothetical protein LOC153469) (H9P83 on Matrigel-DE stage): 0.43 | expression of LOC157627 (AL832535, cDNA DKFZp547J1816) (H9P83 on Matrigel-DE stage): −0.04 | expression of PCSK1 (NM_000439, proprotein convertase subtilisinkexin type 1) (H9P83 on Matrigel-DE stage): −2.68 | expression of SMOC2 (AB014737, mRNA for SMAP-2b) (H9P83 on Matrigel-DE stage): −2.04 | LOC646326 (BE972639) gene expression (H9P83 on Matrigel-DE stage, undifferentiated H9P83 on Matrigel 0.00): −2.71 | LOC200230 (AI056877) gene expression (H9P83 on Matrigel-DE stage, undifferentiated H9P83 on Matrigel 0.11): −2.37 | C9orf39 (AA280904) gene expression (H9P83 on Matrigel-DE stage, undifferentiated H9P83 on Matrigel 0.23): −1.58 | COL14A1 (AI693516) gene expression (H9P83 on Matrigel-DE stage, undifferentiated H9P83 on Matrigel 0.39): −1.63 | AF107846 (neuroendocrine-specific Golgi protein p55 (XLalphas) gene) expression (H9P83 on Matrigel-DE stage, undifferentiated H9P83 on Matrigel 0.44): −0.25 | AK5 (BG169832) gene expression (H9P83 on Matrigel-DE stage, undifferentiated H9P83 on Matrigel 0.62): −2.79 | PAH (NM_000277) gene expression (H9P83 on Matrigel-DE stage, undifferentiated H9P83 on Matrigel 0.65): −1.08 | CTNND2 (U96136) gene expression (H9P83 on Matrigel-DE stage, undifferentiated H9P83 on Matrigel 0.78): −1.33 | BF698797 (ESTs) gene expression (H9P83 on Matrigel-DE stage, undifferentiated H9P83 on Matrigel 0.93): −0.74 | AI742043 (ESTs) gene expression (H9P83 on Matrigel-DE stage, undifferentiated H9P83 on Matrigel 0.94): −0.76 | AL120674 (ESTs) gene expression (H9P83 on Matrigel-DE stage, undifferentiated H9P83 on Matrigel 1.00): −1.35 | SAMHD1 (AF147427) gene expression (H9P83 on Matrigel-DE stage, undifferentiated H9P83 on Matrigel 1.33): −0.99 | C10orf96 (BC044830) gene expression [4]: −0.32 | PSMB9 (NM_002800) gene expression [4]: 0.27 | LOC157627 (AF052108) gene expression (H9P83 on Matrigel-DE stage, undifferentiated H9P83 on Matrigel 1.49): 0.22 | CR2 (NM_001877) gene expression (H9P83 on Matrigel-DE stage, undifferentiated H9P83 on Matrigel 1.50): −0.43 | DAZL (NM_001351) gene expression (H9P83 on Matrigel-DE stage, undifferentiated H9P83 on Matrigel 1.69): −0.81 | HHIP (AK098525) gene expression (H9P83 on Matrigel-DE stage, undifferentiated H9P83 on Matrigel 1.76): −0.57 | CHST8 (NM_022467) gene expression (H9P83 on Matrigel-DE stage, undifferentiated H9P83 on Matrigel 2.11): −0.51 | FGF19 (AF110400) gene expression (H9P83 on Matrigel-DE stage, undifferentiated H9P83 on Matrigel 2.12): −0.08 | KCNG3 (NM_133329) gene expression (H9P83 on Matrigel-DE stage, undifferentiated H9P83 on Matrigel 2.18): 0.74 | NPTX1 (NM_002522) gene expression (H9P83 on Matrigel-DE stage, undifferentiated H9P83 on Matrigel 2.35): −0.48 | STXBP6 (N21096) gene expression (H9P83 on Matrigel-DE stage, undifferentiated H9P83 on Matrigel 2.42): 0.99 | SAMHD1 (NM_015474) gene expression (H9P83 on Matrigel-DE stage, undifferentiated H9P83 on Matrigel 2.63): 0.57 | FEZ1 (NM_005103) gene expression (H9P83 on Matrigel-DE stage, undifferentiated H9P83 on Matrigel 2.80): 2.08 | RMST (BE468066) gene expression (H9P83 on Matrigel-DE stage, undifferentiated H9P83 on Matrigel 3.26): 1.49 | TOX (AI961231) gene expression (H9P83 on Matrigel-DE stage, undifferentiated H9P83 on Matrigel 3.28): 1.23 | PSMB8 (U17496) gene expression (H9P83 on Matrigel-DE stage, undifferentiated H9P83 on Matrigel 3.43): 0.46 | NMI (NM_004688) gene expression (H9P83 on Matrigel-DE stage, undifferentiated H9P83 on Matrigel 3.54): 0.96
